# Assay results taken from article PMC8153946, “Substrate Selectivity of Coumarin Derivatives by Human CYP1 Enzymes: In Vitro Enzyme Kinetics and In Silico Modeling” (ACS Omega, 2021).
# Assays:
# Assay type in all cases: biochemical
# [1] = tested on: human CYP1 enzymes (CYP1A1, CYP1A2, CYP1B1); assay: Oxidation efficiency compared across all CYP1 forms (Table 1); conditions: based on Table 1
# Procedure: (§1) Baculovirus-insect cell-expressed human CYP1A1, CYP1A2, CYP1B1, CYP2A6, CYP2B6, CYP2C8, CYP2C9, CYP2C19, CYP2D6, CYP2E1, CYP3A4, CYP3A5, and CYP3A7 were purchased from BD Biosciences Discovery Labware (Woburn, MA, USA) and used according to the manufacturer’s instructions.
# (§2) The kinetic assays were carried out in 100 μL volume containing 100 mM Tris-HCl buffer pH 7.4, 0–40 μM coumarin derivative or 0–10 μM 7-ethoxyresorufin, 1–25 nM recombinant CYP or 0–0.1 g/L microsomal protein, and 20% NADPH regenerating system. Incubations took place at 37 °C in 96-multiwell plates; the fluorescence was measured with a Victor[2] plate reader (PerkinElmer Life Sciences, Turku, Finland). The detailed conditions are described in the figures and tables. The reaction was started by adding NADPH, and fluorescence was measured at 2 min intervals for 40 min using excitation at 405 nm and emission at 460 nm for oxidation of coumarin derivatives[18] and excitation at 570 nm and emission at 615 nm for ethoxyresorufin or pentoxyresorufin 7-O-dealkylations. Incubations without the substrate, enzyme, or NADPH were used as blank reactions. Resorufin was used as a standard, and 3-(4-fluorophenyl)-7-hydroxycoumarin was used as the surrogate standards to calculate the amount of product formed. The linear phase of the reactions was used for calculations.
# (§3) Enzyme kinetic parameters were analyzed using the nonlinear Michaelis–Menten equation v = Vmax × S/(Km + S), in which v is the rate for 7-hydroxylation of a coumarin derivative, S is its concentration, and Vmax value is the limiting rate of the reaction of 7-hydroxylation, which reached a half-maximal rate at a concentration of Km for the substrate.
# human CYP1A1 = molecular target: T1, human CYP1A1 (Homo sapiens, UniProt P04798); assay: Michaelis–Menten kinetics of oxidation to fluorescent 7-hydroxy metabolite by recombinant CYP1A1; design: key to screening activity class: NA, no activity was observed.; LA, low screening activity at the 20 μM substrate and 25 nM CYP concentration; conditions: for Vmax: recombinant CYP1A1, surrogate standard, 95% confidence interval in brackets; for screening activity class: CYP1A1, 20 μM substrate and 25 nM CYP
# T1 construct: purchased BD Biosciences Discovery Labware (Woburn, MA, USA); host or cells: baculovirus-insect cells
# T1 sequence (P04798 1-512): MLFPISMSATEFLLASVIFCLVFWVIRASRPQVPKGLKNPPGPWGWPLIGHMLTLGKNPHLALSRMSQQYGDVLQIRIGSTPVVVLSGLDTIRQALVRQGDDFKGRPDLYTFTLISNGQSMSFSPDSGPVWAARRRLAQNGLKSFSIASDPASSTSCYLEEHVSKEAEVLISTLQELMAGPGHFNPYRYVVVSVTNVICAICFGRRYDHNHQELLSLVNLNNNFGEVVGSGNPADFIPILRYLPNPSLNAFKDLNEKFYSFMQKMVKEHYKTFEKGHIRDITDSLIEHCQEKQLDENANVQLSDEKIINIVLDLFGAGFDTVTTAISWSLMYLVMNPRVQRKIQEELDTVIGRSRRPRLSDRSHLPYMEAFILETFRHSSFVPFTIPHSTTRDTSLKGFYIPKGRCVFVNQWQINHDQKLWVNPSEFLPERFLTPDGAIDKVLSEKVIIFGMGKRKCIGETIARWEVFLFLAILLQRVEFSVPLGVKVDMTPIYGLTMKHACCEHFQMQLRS
# Procedure: as §1, §2, §3
# [2] = tested on: 13 recombinant human CYP enzymes; assay: Oxidation rates by 13 recombinant human CYP enzymes at fixed substrate concentration (Figure 2); conditions: 25 nM CYP; for CYP1 form oxidizing the substrate fastest: 10 μM coumarin derivative or 1 μM 7-ethoxy/7-pentoxyresorufin; for oxidation rate relative to oxidation of 7-pentoxyresorufin / fluorescence change and rate of the oxidation: fixed substrate concentration
# Procedure: as §1, §2
# To find out which CYP forms oxidize the 11 novel coumarin derivatives, we determined their oxidation rates to the corresponding 7-hydroxycoumarin metabolites by 13 recombinant human CYP enzymes at a fixed 10 μM substrate concentration (Figure 2). All except 21, 22, and 23 were oxidized faster by one or several CYP1 forms than by the other CYP forms. […] Oxidation rates of the classical CYP substrates 7-ethoxycoumarin, 7-ethoxyresorufin, and 7-pentoxyresorufin were also determined. […] Oxidation of 7-ethoxycoumarin and 7-ethoxyresorufin was 35 and 60 times faster, respectively, than oxidation of 7-pentoxyresorufin. 7-Ethoxyresorufin was oxidized by CYP1A2 and CYP1B1 at 30–40% of the rate of CYP1A1.
# Figure 2 Oxidation of the coumarin derivatives and 7-ethoxy- and 7-pentoxyresorufin by 13 human CYP forms. The formation of fluorescent metabolites was determined in incubations containing a 25 nM CYP, a 20% NADPH regenerating system, and a 10 μM coumarin derivative or 1 μM 7-ethoxy/7-pentoxyresorufin in 100 mM Tris-HCl pH 7.4 in the kinetic experimental setup. […] Note the variation in Y-axis scales between subpanels.
# human CYP1B1 = molecular target: T2, human CYP1B1 (Homo sapiens, UniProt Q16678); assay: Michaelis–Menten kinetics of oxidation to fluorescent 7-hydroxy metabolite by recombinant CYP1B1; design: key to screening activity class: NA, no activity was observed.; LA, low screening activity at the 20 μM substrate and 25 nM CYP concentration; conditions: for screening activity class: CYP1B1, 20 μM substrate and 25 nM CYP
# T2 construct: purchased BD Biosciences Discovery Labware (Woburn, MA, USA); host or cells: baculovirus-insect cells
# T2 sequence (Q16678 1-543): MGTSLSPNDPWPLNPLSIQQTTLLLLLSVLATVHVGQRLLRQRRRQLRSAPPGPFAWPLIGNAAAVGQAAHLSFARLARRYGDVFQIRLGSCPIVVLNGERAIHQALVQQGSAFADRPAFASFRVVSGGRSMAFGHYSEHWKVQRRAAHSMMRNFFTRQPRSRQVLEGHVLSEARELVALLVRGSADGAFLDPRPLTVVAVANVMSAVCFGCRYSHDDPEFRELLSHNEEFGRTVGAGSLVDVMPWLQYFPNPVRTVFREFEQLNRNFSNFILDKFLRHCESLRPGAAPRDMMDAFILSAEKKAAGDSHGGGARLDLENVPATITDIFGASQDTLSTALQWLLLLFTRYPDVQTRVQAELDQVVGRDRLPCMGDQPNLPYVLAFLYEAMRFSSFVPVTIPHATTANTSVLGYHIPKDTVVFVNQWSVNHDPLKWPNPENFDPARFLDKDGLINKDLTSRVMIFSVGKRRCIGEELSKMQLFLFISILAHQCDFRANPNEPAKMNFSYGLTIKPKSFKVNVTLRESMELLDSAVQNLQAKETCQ
# Procedure: as §1, §2, §3
# CYP1A2 = molecular target: T3, CYP1A2 (Homo sapiens, UniProt P05177); assay: Michaelis–Menten kinetics of oxidation to fluorescent 7-hydroxy metabolite by recombinant CYP1A2; design: key to screening activity class: NA, no activity was observed.; LA, low screening activity at the 20 μM substrate and 25 nM CYP concentration; conditions: for Vmax: recombinant CYP1A2, surrogate standard
# T3 construct: purchased BD Biosciences Discovery Labware (Woburn, MA, USA); host or cells: baculovirus-insect cells
# T3 sequence (P05177 1-516): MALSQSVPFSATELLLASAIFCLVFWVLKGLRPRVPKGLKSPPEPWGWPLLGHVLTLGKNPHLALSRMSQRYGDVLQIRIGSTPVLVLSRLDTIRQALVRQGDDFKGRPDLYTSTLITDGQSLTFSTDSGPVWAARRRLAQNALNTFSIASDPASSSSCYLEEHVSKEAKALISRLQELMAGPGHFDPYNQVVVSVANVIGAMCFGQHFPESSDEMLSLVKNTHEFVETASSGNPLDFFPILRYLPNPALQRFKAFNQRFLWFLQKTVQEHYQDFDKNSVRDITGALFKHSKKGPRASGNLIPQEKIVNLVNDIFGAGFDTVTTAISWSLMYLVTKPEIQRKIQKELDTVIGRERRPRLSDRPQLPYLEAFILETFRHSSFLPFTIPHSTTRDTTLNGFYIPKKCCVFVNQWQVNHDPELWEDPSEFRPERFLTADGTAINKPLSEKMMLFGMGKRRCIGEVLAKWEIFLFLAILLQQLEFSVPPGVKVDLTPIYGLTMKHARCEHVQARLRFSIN
# Procedure: as §1, §2, §3
# [3] = 95% confidence interval in brackets
structure (smiles),measurement,setting,value
"CC(=O)Oc1ccc(-c2cc3cc(Cl)ccc3oc2=O)cc1 [Compound 20, 3-(4-acetoxyphenyl)-6-chlorocoumarin]",substrate efficiency compared among CYP1 enzymes,[1],efficient substrate for CYP1B1 compared with CYP1A1 and 1A2
same,Vmax,human CYP1A1,6.5 mol/(min·mol CYP)
same,CYP1 form oxidizing the substrate fastest,[2],oxidized faster by CYP1A1 than CYP1A2 or CYP1B1
"COc1ccc(-c2cc3cc(OC(C)=O)ccc3oc2=O)cc1 [Compound 17, 3-(4-methoxyphenyl)-6-acetoxycoumarin]",CYP1 form oxidizing the substrate fastest,[2],oxidized faster by CYP1A2 than CYP1A1 or CYP1B1
same,screening activity class,human CYP1B1,LA
"CCOc1ccc2nc3ccc(=O)cc-3oc2c1 [Compound 25, 7-ethoxyresorufin, reference compound]",substrate efficiency compared among CYP1 enzymes,[1],efficient substrates for CYP1A1 compared with CYP1A2 and CYP1B1
same,oxidation rate by CYP1A2 and CYP1B1 relative to the rate of CYP1A1,[2]; 1 μM substrate,30–40%
same,CYP1 form oxidizing the substrate fastest,[2],oxidized faster by CYP1A1 than the other CYP1 enzymes
same,oxidation rate relative to oxidation of 7-pentoxyresorufin,[2],60 times
"COc1ccc2oc(=O)c(-c3ccc(O)c(F)c3)cc2c1 [Compound 13, 3-(3-fluoro-4-hydroxyphenyl)-6-methoxycoumarin]",substrate efficiency compared among CYP1 enzymes,[1],efficient substrates for CYP1A1 compared with CYP1A2 and CYP1B1
same,Vmax,human CYP1A1,32 mol/(min·mol CYP)
same,CYP1 form oxidizing the substrate fastest,[2],oxidized faster by CYP1A1 than CYP1A2 or CYP1B1
"CCOc1ccc2ccc(=O)oc2c1 [Compound 24, 7-ethoxycoumarin, reference compound]",substrate efficiency compared among CYP1 enzymes,[1],efficient substrates for CYP1A1 compared with CYP1A2 and CYP1B1
same,CYP1 form oxidizing the substrate fastest,[2],oxidized faster by CYP1A1 than the other CYP1 enzymes
same,oxidation rate relative to oxidation of 7-pentoxyresorufin,[2],35 times
same,Km,"CYP1A2; human, recombinant CYP1A2 (baculovirus-insect cell-expressed), recombinant CYP1A2, 100 mM Tris-HCl pH 7.4, 37 °C, 95% confidence interval in brackets",7.7 µM
same,Vmax,CYP1A2; [3],2.0 (1.4–2.6) mol/(min·mol CYP)
"O=c1oc2ccccc2cc1-c1cccc(O)c1 [Compound 23, 3-(3-hydroxyphenyl)coumarin]",screening activity class,human CYP1A1,LA
same,CYP1 form oxidizing the substrate fastest,[2],oxidized faster by CYP1A2 than CYP1A1 or CYP1B1
same,fluorescence change and rate of the oxidation,[2],lowest
same,screening activity class,human CYP1B1,LA
"CC(=O)Oc1cccc(-c2cc3cc(Cl)ccc3oc2=O)c1 [Compound 22, 3-(3-acetoxyphenyl)-6-chlorocoumarin]",screening activity class,human CYP1A1,LA
same,CYP1 form oxidizing the substrate fastest,[2],oxidized faster by CYP1B1 than by CYP1A1 or CYP1A2
same,fluorescence change and rate of the oxidation,[2],almost equally low
same,screening activity class,"CYP1A2; CYP1A2, 20 μM substrate and 25 nM CYP",LA
"O=c1oc2ccc(O)cc2cc1-c1cccc(O)c1 [Compound 15, 3-(3-hydroxyphenyl)-6-hydroxycoumarin]",substrate efficiency compared among CYP1 enzymes,[1],efficient substrate for CYP1A2 compared with CYP1A1 and CYP1B1
same,CYP1 form oxidizing the substrate fastest,[2],oxidized faster by CYP1A2 than CYP1A1 or CYP1B1
same,Vmax,"human CYP1B1; recombinant CYP1B1, surrogate standard, 95% confidence interval in brackets",0.29 mol/(min·mol CYP)
"COc1ccc2oc(=O)c(-c3ccc(OC(F)(F)F)cc3)cc2c1 [Compound 16, 3-(4-trifluoromethoxyphenyl)-6-methoxycoumarin]",substrate efficiency compared among CYP1 enzymes,[1],oxidized with equal efficiency by CYP1A1 and CYP1A2 and weakly by CYP1B1
same,CYP1 form oxidizing the substrate fastest,[2],oxidized faster by CYP1A1 than CYP1A2 or CYP1B1
same,screening activity class,human CYP1B1,LA
"COc1ccc2cc(-c3ccc(OC(F)(F)F)cc3)c(=O)oc2c1 [Compound 18, 3-(4-trifluoromethoxyphenyl)-7-methoxycoumarin]",substrate efficiency compared among CYP1 enzymes,[1],oxidized with equal efficiency by CYP1A1 and CYP1A2 and weakly by CYP1B1
same,CYP1 form oxidizing the substrate fastest,[2],oxidized faster by CYP1A2 than CYP1A1 or CYP1B1
same,screening activity class,human CYP1B1,LA
"CCCCCOc1ccc2nc3ccc(=O)cc-3oc2c1 [Compound 26, 7-pentoxyresorufin, reference compound]",substrate efficiency compared among CYP1 enzymes,[1],efficient substrates for CYP1A1 compared with CYP1A2 and CYP1B1
same,Vmax,human CYP1A1,1.35 mol/(min·mol CYP)
same,CYP1 form oxidizing the substrate fastest,[2],oxidized faster by CYP1A1 than the other CYP1 enzymes
same,fluorescence change and rate of the oxidation,[2],lowest
same,Vmax,CYP1A2; [3],0.25 mol/(min·mol CYP)
"Cc1ccc2oc(=O)c(-c3ccc(F)cc3)cc2c1 [Compound 21, 3-(4-fluorophenyl)-6-methylcoumarin]",screening activity class,human CYP1A1,LA
same,CYP1 form oxidizing the substrate fastest,[2],oxidized faster by CYP1A2 than CYP1A1 or CYP1B1
same,fluorescence change and rate of the oxidation,[2],almost equally low
same,screening activity class,human CYP1B1,LA
"COc1cccc(-c2cc3cc(OC)ccc3oc2=O)c1 [Compound 19, 3-(3-methoxyphenyl)-6-methoxycoumarin]",substrate efficiency compared among CYP1 enzymes,[1],oxidized with equal efficiency by all CYP1 enzymes
same,CYP1 form oxidizing the substrate fastest,[2],oxidized faster by CYP1A1 than CYP1A2 or CYP1B1
